SMILES strings stand for the structures.

A short description of the data set: gradient 5% acetonitrile 3 min, to 50% in 2 min, to 85% in 15 min, held 3 min, 100 µL/min. Particulars: column: Zorbax Extend-C18 2.1 x 50 mm; eluents: water / acetonitrile, 0.1% formic acid. Summed up: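 In both positive and negative ionization mode, a quadrupole time-of-flight mass spectrometer coupled to HPLC analyzed pure standards run in mixtures of ~100 molecules. The Zorbax Extend-C18 column (2.1 × 50 mm, 1.8 μm) was operated at 100 μL/min with water and acetonitrile, each containing 0.1% formic acid. The dead volume was 40 μL and the dwell volume 900 μL. Retention time came from adduct peaks that were computationally picked and individually inspected by hand.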
On to `CCc1ccc(-c2cc3c(=O)n(Cc4noc(CN5CCCC(C)C5)n4)ccn3n2)cc1` (stereo not given), for which the RP-LC retention time came out at 726 s.

With `CCN1C(=O)C2(c3ccccc31)c1[nH]c3ccccc3c1CCN2C(C)=O` (stereo not given), the RP-LC retention time was determined as 779 s.

Compound `COc1cccc(CNC(=O)N2CCC(N3CCN(Cc4ccccc4)C(=O)C3=O)CC2)c1` showed an RP-LC retention time of 698 s.

Regarding `Cc1ccc(C(=O)N(CC(=O)N(Cc2ccco2)CC2CCCO2)C(C)(C)C)cc1` (stereo not given), the RP-LC retention time was determined as 907 s.

Consider `Cn1nnc2c(SCc3c(F)cccc3Cl)ncnc21`, for which the RP-LC retention time came out at 933 s.

With `O=C(CCC1CCN(S(=O)(=O)c2ccccc2)CC1)NCC1CCCCC1`, the RP-LC retention time stood at 971 s.

In the case of `Cc1oc(-c2[nH]ncc2C(=O)N2CCOCC2)cc1S(=O)(=O)N1CCOCC1`, the RP-LC retention time is 595 s.

In turn, `CC(NC(=O)c1ccco1)c1nc(-c2ccc(-c3csc(-c4ccccc4)n3)cc2)no1` (stereo not given) yielded an RP-LC retention time of 1200 s.

`COc1cccc(C2Cn3nnc(-c4nc(-c5ccc(Cl)cc5)no4)c3CO2)c1` (stereo not given) registered an RP-LC retention time of 1220 s.

In turn, `CCOC(=O)c1cnc(N2CCN(c3ccc(F)cc3)CC2)c2ccccc12` had an RP-LC retention time of 1270 s.

With `Cc1ccc2[nH]c(=O)c(CCC(=O)NCCCN3CCCC3=O)cc2c1`, the RP-LC retention time worked out at 608 s.

On to `CCOC(=O)c1cc(S(=O)(=O)N2CCCC2C(=O)N2CCC3(CC2)OCCO3)cn1C` (stereo not given), for which the RP-LC retention time amounted to 720 s.

As to `O=C(NCc1ccccc1OC(F)(F)F)c1ccc(OCC(=O)C2CC2)cc1`, the RP-LC retention time worked out at 876 s.

In the case of `O=C(NCc1ccccc1)C1(CCO)CC12CCOCC2` (stereo not given), the RP-LC retention time was 627 s.

Regarding `CCCC(=O)Nc1ccc(-c2cn3ccc(C)nc3n2)cc1`, the RP-LC retention time amounted to 587 s.

`COc1ccc(-c2nnc(SCC(=O)N3CCC(C)CC3)o2)cc1` showed an RP-LC retention time of 914 s.

In the case of `CN(C)c1ccc(CN2C(=O)CN(S(C)(=O)=O)CC2(C)C(=O)NCc2ccccc2)cc1` (stereo not given), the RP-LC retention time stood at 622 s.

The compound `COc1ccc(-c2nc(-c3ccc4ncn(C(C)C)c4c3)no2)c(C)c1` yielded an RP-LC retention time of 881 s.

`COc1ccc(C)cc1NC(=O)Cn1nc2cc(-c3ccccn3)nc(C)n2c1=O` registered an RP-LC retention time of 804 s.

As to `O=C(C1CC(=O)N(C2CCCCC2)C1)N1CCCCCC1` (stereo not given), the RP-LC retention time came to 763 s.

On to `COc1cc2c(cc1OC)C(C(=O)NCCN1CCOCC1)C1c3ccccc3CCN1C2=O` (stereo not given), for which the RP-LC retention time was determined as 595 s.

Compound `COc1cc(OC)c(NC(=O)N2CCOc3ccccc32)cc1Cl` registered an RP-LC retention time of 1010 s.

The compound `CC1(C)CC(=O)C2=C(C1)N(Cc1ccco1)C(=O)C2(NC(=O)CCc1ccccc1)C(F)(F)F` (stereo not given) registered an RP-LC retention time of 996 s.

Regarding `COc1ccc(-c2nc3ncccn3c2Nc2cccc(C)c2)cc1`, the RP-LC retention time is 743 s.

As to `Cc1ccc(CC(=O)N2CCC3(CC2)NC(=O)c2cc(F)ccc2N3C)cc1`, the RP-LC retention time came out at 804 s.

For the compound `Cc1cccc(-c2noc(Cn3ncn4nc(-c5cccs5)cc4c3=O)n2)c1`, the RP-LC retention time was found to be 1100 s.

As to `Cc1cccc(S(=O)(=O)N2CCCC(OCc3nc(C)no3)C2)c1` (stereo not given), the RP-LC retention time was determined as 877 s.

The compound `O=C(Cn1cccc1-c1nnc(-c2ccccc2)o1)NCc1ccc2c(c1)OCO2` came in with an RP-LC retention time of 860 s.

In turn, `COc1ccc(C(=O)N2CCC3(CC2)NC(=O)c2cc(C)ccc2N3C)c(OC)c1` had an RP-LC retention time of 754 s.

The compound `CN(C)S(=O)(=O)c1ccc2c(c1)N(CC(=O)N1CCCCC1)C(=O)C1CCCCN21` (stereo not given) showed an RP-LC retention time of 812 s.

Take `O=C([C@@H]1C[C@H](F)CN1C(=O)NCc1ccco1)N1CCCCC1`: the RP-LC retention time came out at 631 s.

`Cc1ccn2cc(-c3ccc(NC(=O)Nc4ccccc4)cc3)nc2n1` had an RP-LC retention time of 640 s.

On to `Cc1ccc(Cn2cc(-c3ccncc3)cc2C(=O)NCCN(C)C)cc1`, for which the RP-LC retention time stood at 570 s.

`CSc1ccc(NC(=O)NC2CCN(c3cc(C)cc(C)c3)C2=O)cc1` (stereo not given) returned an RP-LC retention time of 916 s.

In the case of `COC(=O)Nc1ccc(S(=O)(=O)N2CCCC(C(=O)O)C2)cc1` (stereo not given), the RP-LC retention time was 640 s.

For the compound `COc1cc(NC(=O)CSc2ncc(-c3cccc(Cl)c3)o2)cc(OC)c1OC`, the RP-LC retention time is 896 s.

The compound `CSc1cccc(NC(=O)N2CCCC2c2nc(-c3cccc(C)c3)no2)c1` (stereo not given) showed an RP-LC retention time of 1080 s.

As for `CCC(C)NC(=O)C(=O)NCc1n[nH]c(=O)c2ccccc12` (stereo not given), the RP-LC retention time worked out at 649 s.

Take `O=C1COc2cc(S(=O)(=O)N3CCCC3C(=O)NCCN3CCCC3)c(Cl)cc2N1` (stereo not given): the RP-LC retention time turned out to be 567 s.

In turn, `CN(C)CCNC(=O)c1ccc2ccnc(N3CCN(C(=O)c4ccco4)CC3)c2c1` gave an RP-LC retention time of 557 s.

On to `CC(=O)c1cccc(NC(=O)N2CCN(c3cnn4c(C)nnc4c3)CC2)c1`, for which the RP-LC retention time was determined as 600 s.

With `COc1ccccc1-c1nnc(NC(=O)C2CC(=O)N(c3ccc(F)cc3)C2)o1` (stereo not given), the RP-LC retention time was determined as 652 s.

As for `Cc1ccc2c(Nc3ccc(F)c(C#N)c3)c(C(=O)N3CCOCC3)cnc2n1`, the RP-LC retention time amounted to 598 s.

The compound `CCNC(=O)C1CCCN(S(=O)(=O)c2cc(OC)ccc2OC)C1` (stereo not given) displayed an RP-LC retention time of 699 s.

Compound `Cc1cc(=O)n(CC(=O)Nc2cc(Cl)ccc2C)c(N2CCOCC2)n1` registered an RP-LC retention time of 736 s.

For `CCc1cccc(C)c1NC(=O)C1Cc2cc(S(=O)(=O)N3CCCCC3)ccc2N1C(C)=O` (stereo not given), the RP-LC retention time amounted to 900 s.

Compound `Cc1ccccc1-c1csc(Cc2nc(-c3ccc(Cl)cc3)no2)n1` had an RP-LC retention time of 1330 s.

In turn, `O=C(Cn1nc2c(c1NC(=O)c1c(F)cccc1Cl)CSC2)NCC1CCCO1` (stereo not given) had an RP-LC retention time of 671 s.

Compound `CN(C(=O)CN1C(=O)C(O)(c2cccc(F)c2)c2ccccc21)c1ccccc1` (stereo not given) gave an RP-LC retention time of 856 s.

Compound `CCOC(=O)C1CCCN(S(=O)(=O)c2cc(-c3nnc(-c4ccccc4)o3)ccc2OC)C1` (stereo not given) showed an RP-LC retention time of 1020 s.

In turn, `COc1ccc(Cl)cc1NC(=O)NC1CCN(c2ccc(C)cc2)C1=O` (stereo not given) returned an RP-LC retention time of 931 s.

As to `O=S(=O)(Nc1ccc(Cn2cncn2)cc1)c1ccccc1F`, the RP-LC retention time stood at 688 s.

Turning to `O=c1ccc(S(=O)(=O)N2CCOCC2)cn1Cc1cc(F)cc(F)c1`, the RP-LC retention time was 791 s.

With `CCn1cc(C(=O)Nc2ccc(C)c(F)c2)c2cccnc21`, the RP-LC retention time worked out at 920 s.

Compound `CCc1nnc(NC(=O)CSc2nccn2-c2ccc(F)cc2)s1` had an RP-LC retention time of 653 s.

With `Cn1c(N)c(S(=O)(=O)Nc2ccc(Br)cc2)c(=O)n(C)c1=O`, the RP-LC retention time was 672 s.

Take `CC1CCN(S(=O)(=O)c2ccc(-c3nnc(C(=O)NCc4ccc(Cl)cc4)o3)cc2)CC1`: the RP-LC retention time amounted to 1120 s.

Compound `Cn1cc(CC(=O)NCc2ccc(Cl)cc2)c2cccnc21` showed an RP-LC retention time of 706 s.

As for `COc1ccc(NS(=O)(=O)c2cc3n(c2)CCN(C(C)C)C3=O)cc1`, the RP-LC retention time came to 717 s.

For the compound `COCCCNc1nc(-c2ccc(C(C)(C)C)cc2)nc2ccccc12`, the RP-LC retention time amounted to 843 s.

`CCC(=O)N1CCc2cc(C(=O)NC3CCCC3)ccc21`: the RP-LC retention time was 744 s.

`O=C(c1ccc(-c2cncnc2)nc1)N1CCN(c2ccc(Cl)cc2)CC1`: the RP-LC retention time worked out at 796 s.

`O=C(NCc1ccc(Cl)cc1)C1CCc2nc(N3CCOCC3)ncc2C1` (stereo not given) registered an RP-LC retention time of 704 s.

Compound `CCCc1ccc(S(=O)(=O)N2CCC3(CC2)NCCN=C3NCc2ccc(C)cc2)cc1` displayed an RP-LC retention time of 846 s.

In turn, `CCc1noc(NC(C)=O)c1-c1ccc(OC)c(S(=O)(=O)Nc2ccc(OC)c(Cl)c2)c1` gave an RP-LC retention time of 775 s.

As to `CCCNC(=O)c1cc(=O)[nH]c2c(Cl)cccc12`, the RP-LC retention time worked out at 1080 s.

Take `CC(C)Oc1ccc(-c2noc(CN3C(=O)C(C)Oc4ccccc43)n2)cc1` (stereo not given): the RP-LC retention time was determined as 1200 s.

Regarding `CCOc1ccc(-c2nc(NC(=O)c3ccccc3[N+](=O)[O-])sc2C)cc1`, the RP-LC retention time was found to be 1050 s.

For `Cc1cccc(NC(=O)C2CCN(S(=O)(=O)c3cc(C(=O)N4CCCCCC4)cs3)CC2)n1`, the RP-LC retention time was found to be 769 s.

For the compound `CCc1ccc(CNC(=O)C2CCCN(c3nc4c(s3)c(C)nn4-c3ccc(C)cc3)C2)cc1` (stereo not given), the RP-LC retention time came out at 1260 s.

For the compound `O=C(CSc1cc(-c2nc(-c3ccccc3)no2)ccn1)N1CCCC1`, the RP-LC retention time was 941 s.

Compound `CCn1cc(S(=O)(=O)NC2CCCC2)c2cccnc21` came in with an RP-LC retention time of 808 s.

Compound `CNc1nccc(N2CCC(CC(=O)O)CC2)n1` displayed an RP-LC retention time of 576 s.

For `COc1ccc2[nH]cc(CCNC(=O)CN3C(=O)CCn4nc(-c5cn(C)c6ccccc56)cc43)c2c1`, the RP-LC retention time is 797 s.

As to `COCCCNC(=O)C1CCN(Cc2cc3ccccc3n2Cc2ccccc2)CC1`, the RP-LC retention time is 684 s.

On to `CCNC(=O)C1CCc2sc(C(=O)N(C)C)cc2C1` (stereo not given), for which the RP-LC retention time is 617 s.

Turning to `O=C(NCc1ccc2c(c1)OCO2)c1cnn2c3c(cnc12)CCCCCC3`, the RP-LC retention time amounted to 1000 s.

`COc1ccc(C)cc1NC(=O)C1CCCN(S(=O)(=O)c2cc(-c3noc(C)n3)cs2)C1` (stereo not given) displayed an RP-LC retention time of 1040 s.

Regarding `CCCC(=O)N1CCC(C(=O)Nc2ccc(OCC)cc2)CC1`, the RP-LC retention time was 718 s.

Consider `CCN1C(=O)CCc2cc(NC(=O)Cc3cccc(OC)c3)ccc21`, for which the RP-LC retention time came to 757 s.

For the origin of these results see the METLIN SMRT retention time set (Domingo-Almenara et al. 2019).
